Measured values reported in US10538555B2, “Macrocyclic inhibitors of the PD-1/PD-L1 and CD80(B7-1)/PD-L1 protein/protein interactions” (BRISTOL-MYERS SQUIBB COMPANY, priority 2014, dated 2020).
Where a SMILES comes first, the peptide text is derived from it. Bridges are numbered along the chain shown (N, C = ends). [ ]: non-standard residue; d: D form. Trp(1-CH2COOH) = N[C@@H](Cc1cn(CC(=O)O)c2ccccc12)C(=O)O; Bta = N[C@@H](Cc1csc2ccccc12)C(=O)O; Hyp = O=C(O)[C@@H]1C[C@@H](O)CN1; NMeNle = CCCC[C@H](NC)C(=O)O; NMeA = CN[C@@H](C)C(=O)O; Orn = NCCC[C@H](N)C(=O)O; Dab = NCC[C@H](N)C(=O)O; Dap = NC[C@H](N)C(=O)O

Target: T1, Human PD-L1/PD-1 (Homo sapiens, UniProt Q9NZQ7)
T1 construct: TVMV protease cleavage site (C); made in house; host or cells: HEK293T cells
T1 sequence (Q9NZQ7 with tags, fused parts or gaps): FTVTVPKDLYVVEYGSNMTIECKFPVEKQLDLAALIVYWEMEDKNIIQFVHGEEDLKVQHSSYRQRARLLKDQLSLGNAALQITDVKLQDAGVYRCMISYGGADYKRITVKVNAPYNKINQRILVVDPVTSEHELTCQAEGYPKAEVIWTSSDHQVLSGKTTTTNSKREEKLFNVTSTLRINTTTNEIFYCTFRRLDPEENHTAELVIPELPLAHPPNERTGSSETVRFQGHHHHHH
Assay: HTRF Human PD-L1/PD-1 binding assay (PD-1-Ig/PD-L1-His)
Settings: PD-L1-His 10 nM, PD-1-Ig 20 nM; class symbol; read-out: HTRF Human PD-L1/PD-1 Binding Assay IC50 Range
Method in brief: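 Truncated Fc-fused human PD-1 (aa 25-167) at 20 nM and His-tagged PD-L1 (aa 18-239) at 10 nM final are used, with peptides preincubated 15 min with PD-L1. Detection uses europium-cryptate anti-Ig and APC anti-His antibodies; 665/620 nm ratio.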

Structure (SMILES) | IC50 [nM]
CCCC[C@H]1C(=O)N(C)[C@@H](CCCC)C(=O)N[C@@H](CCC(=O)O)C(=O)N[C@H](C(=O)NCC(N)=O)CSCC(=O)N[C@@H](Cc2ccc(O)cc2)C(=O)N(C)[C@@H](C)C(=O)N[C@@H](CC(N)=O)C(=O)N2CCC[C@H]2C(=O)N[C@@H](CN)C(=O)N[C@@H](CCC(N)=O)C(=O)N2C[C@H](O)C[C@H]2C(=O)N[C@@H](Cc2c[nH]c3ccccc23)C(=O)N[C@@H](CCC(=O)O)C(=O)N[C@@H](Cc2c[nH]c3ccccc23)C(=O)N1C [Example 5191] ({CH2CO}-Y[NMeA]NP[Dap]Q[Hyp]WEW[NMeNle][NMeNle]ECG-NH2; thioether N-14) | 1 to 9.9
CCCC[C@H]1C(=O)N(C)[C@@H](CCCC)C(=O)N[C@@H](CN)C(=O)N[C@H](C(=O)NCC(N)=O)CSCC(=O)N[C@@H](Cc2ccc(O)cc2)C(=O)N(C)[C@@H](C)C(=O)N[C@@H](CC(=O)O)C(=O)N2CCC[C@H]2C(=O)N[C@@H](CN)C(=O)N[C@@H](CCC(N)=O)C(=O)N2C[C@H](O)C[C@H]2C(=O)N[C@@H](Cc2c[nH]c3ccccc23)C(=O)N[C@@H](CCN)C(=O)N[C@@H](Cc2cn(CC(=O)O)c3ccccc23)C(=O)N1C [Example 5192] ({CH2CO}-Y[NMeA]DP[Dap]Q[Hyp]W[Dab][Trp(1-CH2COOH)][NMeNle][NMeNle][Dap]CG-NH2; thioether N-14) | 1 to 9.9
CCCC[C@H]1C(=O)N(C)[C@@H](CCCC)C(=O)N[C@@H](CCC(=O)O)C(=O)N[C@H](C(=O)NCC(N)=O)CSCC(=O)N[C@@H](Cc2ccc(O)cc2)C(=O)N(C)[C@@H](C)C(=O)N[C@@H](CC(N)=O)C(=O)N2CCC[C@H]2C(=O)N[C@@H](CO)C(=O)N[C@@H](CCC(=O)O)C(=O)N2C[C@H](O)C[C@H]2C(=O)N[C@@H](Cc2c[nH]c3ccccc23)C(=O)N[C@@H](CCC(=O)O)C(=O)N[C@@H](Cc2c[nH]c3ccccc23)C(=O)N1C [Example 5196] ({CH2CO}-Y[NMeA]NPSE[Hyp]WEW[NMeNle][NMeNle]ECG-NH2; thioether N-14) | 1 to 9.9
CCCC[C@H]1C(=O)N(C)[C@@H](CCCC)C(=O)NCC(=O)N[C@H](C(=O)NCC(N)=O)CSCC(=O)N[C@@H](Cc2ccc(O)cc2)C(=O)N(C)[C@@H](C)C(=O)N[C@@H](CC(N)=O)C(=O)N2CCC[C@H]2C(=O)N[C@@H](Cc2c[nH]cn2)C(=O)N[C@@H](CCC(N)=O)C(=O)N2C[C@H](O)C[C@H]2C(=O)N[C@@H](Cc2c[nH]c3ccccc23)C(=O)NCC(=O)N[C@@H](Cc2c[nH]c3ccccc23)C(=O)N1C [Example 5198] ({CH2CO}-Y[NMeA]NPHQ[Hyp]WGW[NMeNle][NMeNle]GCG-NH2; thioether N-14) | 10 to 99.9
CCCC[C@H]1C(=O)N(C)[C@@H](CCCC)C(=O)N[C@@H](CC(C)C)C(=O)N[C@H](C(=O)O)CSCC(=O)N[C@@H](Cc2ccc(O)cc2)C(=O)N(C)[C@@H](C)C(=O)N[C@@H](CC(N)=O)C(=O)N2CCC[C@H]2C(=O)N[C@@H](CN)C(=O)N[C@@H](CC(C)C)C(=O)N2C[C@H](O)C[C@H]2C(=O)N[C@@H](Cc2c[nH]c3ccccc23)C(=O)N[C@@H](CCCN)C(=O)N[C@@H](Cc2cn(CC(=O)O)c3ccccc23)C(=O)N1C [Example 5199] ({CH2CO}-Y[NMeA]NP[Dap]L[Hyp]W[Orn][Trp(1-CH2COOH)][NMeNle][NMeNle]LC-OH; thioether N-14) | 1 to 9.9
CCCC[C@H]1C(=O)N(C)[C@@H](CCCC)C(=O)N[C@@H](CCC(=O)O)C(=O)N[C@H](C(=O)NCC(N)=O)CSCC(=O)N[C@@H](Cc2ccc(O)cc2)C(=O)N(C)[C@@H](C)C(=O)N[C@@H](CC(=O)O)C(=O)N2CCC[C@H]2C(=O)N[C@@H](CN)C(=O)N[C@@H](CCC(N)=O)C(=O)N2C[C@H](O)C[C@H]2C(=O)N[C@@H](Cc2c[nH]c3ccccc23)C(=O)N[C@@H](CCN)C(=O)N[C@@H](Cc2c[nH]c3ccccc23)C(=O)N1C [Example 5200] ({CH2CO}-Y[NMeA]DP[Dap]Q[Hyp]W[Dab]W[NMeNle][NMeNle]ECG-NH2; thioether N-14) | 1 to 9.9
CCCC[C@H]1C(=O)N(C)[C@@H](CCCC)C(=O)N[C@@H](CC(C)C)C(=O)N[C@H](C(=O)NCC(N)=O)CSCC(=O)N[C@@H](Cc2ccc(O)cc2)C(=O)N(C)[C@@H](C)C(=O)N[C@@H](CCN)C(=O)N2CCC[C@H]2C(=O)N[C@@H](Cc2c[nH]cn2)C(=O)N[C@@H](CCCCN)C(=O)N2C[C@H](O)C[C@H]2C(=O)N[C@@H](Cc2c[nH]c3ccccc23)C(=O)N[C@@H](CCCCN)C(=O)N[C@@H](Cc2c[nH]c3ccccc23)C(=O)N1C [Example 5201] ({CH2CO}-Y[NMeA][Dab]PHK[Hyp]WKW[NMeNle][NMeNle]LCG-NH2; thioether N-14) | 1 to 9.9
CCCC[C@H]1C(=O)N(C)[C@@H](CCCC)C(=O)N[C@@H](CC(C)C)C(=O)N[C@H](C(=O)NCC(N)=O)CSCC(=O)N[C@@H](Cc2ccc(O)cc2)C(=O)N(C)[C@@H](C)C(=O)N[C@@H](CC(=O)O)C(=O)N2CCC[C@H]2C(=O)N[C@@H](Cc2c[nH]cn2)C(=O)N[C@@H](CCCCNC(C)=O)C(=O)N2C[C@H](O)C[C@H]2C(=O)N[C@@H](Cc2c[nH]c3ccccc23)C(=O)N[C@@H](CCCCN)C(=O)N[C@@H](Cc2c[nH]c3ccccc23)C(=O)N1C [Example 5202] ({CH2CO}-Y[NMeA]DPHK(Ac)[Hyp]WKW[NMeNle][NMeNle]LCG-NH2; thioether N-14) | 1 to 9.9
CCCC[C@H]1C(=O)N(C)[C@@H](CCCC)C(=O)N[C@@H](CCC(=O)O)C(=O)N[C@H](C(=O)NCC(N)=O)CSCC(=O)N[C@@H](Cc2ccc(O)cc2)C(=O)N(C)[C@@H](C)C(=O)N[C@@H](CC(N)=O)C(=O)N2CCC[C@H]2C(=O)N[C@@H](CO)C(=O)N[C@@H](CCC(N)=O)C(=O)N2C[C@H](O)C[C@H]2C(=O)N[C@@H](Cc2c[nH]c3ccccc23)C(=O)N[C@@H](CO)C(=O)N[C@@H](Cc2c[nH]c3ccccc23)C(=O)N1C [Example 5204] ({CH2CO}-Y[NMeA]NPSQ[Hyp]WSW[NMeNle][NMeNle]ECG-NH2; thioether N-14) | 1 to 9.9
CCCC[C@H]1C(=O)N(C)[C@@H](CCCC)C(=O)N[C@@H](CCC(=O)O)C(=O)N[C@H](C(=O)NCC(N)=O)CSCC(=O)N[C@@H](Cc2ccc(O)cc2)C(=O)N(C)[C@@H](C)C(=O)N[C@@H](CC(N)=O)C(=O)N2CCC[C@H]2C(=O)N[C@@H](CO)C(=O)N[C@@H](CCC(=O)O)C(=O)N2C[C@H](O)C[C@H]2C(=O)N[C@@H](Cc2c[nH]c3ccccc23)C(=O)N[C@@H](CO)C(=O)N[C@@H](Cc2c[nH]c3ccccc23)C(=O)N1C [Example 5205] ({CH2CO}-Y[NMeA]NPSE[Hyp]WSW[NMeNle][NMeNle]ECG-NH2; thioether N-14) | 1 to 9.9
CCCC[C@H]1C(=O)N(C)[C@@H](CCCC)C(=O)N[C@@H](CCC(=O)O)C(=O)N[C@H](C(=O)NCC(N)=O)CSCC(=O)N[C@@H](Cc2ccc(O)cc2)C(=O)N(C)[C@@H](C)C(=O)N[C@@H](CC(N)=O)C(=O)N2CCC[C@H]2C(=O)N[C@@H](CN)C(=O)N[C@@H](CCC(=O)O)C(=O)N2C[C@H](O)C[C@H]2C(=O)N[C@@H](Cc2c[nH]c3ccccc23)C(=O)N[C@@H](CCN)C(=O)N[C@@H](Cc2c[nH]c3ccccc23)C(=O)N1C [Example 5207] ({CH2CO}-Y[NMeA]NP[Dap]E[Hyp]W[Dab]W[NMeNle][NMeNle]ECG-NH2; thioether N-14) | 10 to 99.9
CCCC[C@H]1C(=O)N(C)[C@@H](CCCC)C(=O)N[C@@H](CCC(=O)O)C(=O)N[C@H](C(=O)NCC(N)=O)CSCC(=O)N[C@@H](Cc2ccc(O)cc2)C(=O)N(C)[C@@H](C)C(=O)N[C@@H](CC(N)=O)C(=O)N2CCC[C@H]2C(=O)N[C@@H](CN)C(=O)N[C@@H](CCC(N)=O)C(=O)N2C[C@H](O)C[C@H]2C(=O)N[C@@H](Cc2c[nH]c3ccccc23)C(=O)N[C@@H](CO)C(=O)N[C@@H](Cc2c[nH]c3ccccc23)C(=O)N1C [Example 5208] ({CH2CO}-Y[NMeA]NP[Dap]Q[Hyp]WSW[NMeNle][NMeNle]ECG-NH2; thioether N-14) | 1 to 9.9
CCCC[C@H]1C(=O)N(C)[C@@H](CCCC)C(=O)N[C@@H](CN)C(=O)N[C@H](C(=O)NCC(N)=O)CSCC(=O)N[C@@H](Cc2ccc(O)cc2)C(=O)N(C)[C@@H](C)C(=O)N[C@@H](CC(N)=O)C(=O)N2CCC[C@H]2C(=O)N[C@@H](CN)C(=O)N[C@@H](CCC(N)=O)C(=O)N2C[C@H](O)C[C@H]2C(=O)N[C@@H](Cc2c[nH]c3ccccc23)C(=O)N[C@@H](CCN)C(=O)N[C@@H](Cc2cn(CC(=O)O)c3ccccc23)C(=O)N1C [Example 5213] ({CH2CO}-Y[NMeA]NP[Dap]Q[Hyp]W[Dab][Trp(1-CH2COOH)][NMeNle][NMeNle][Dap]CG-NH2; thioether N-14) | 1 to 9.9
CCCC[C@H]1C(=O)N(C)[C@@H](CCCC)C(=O)N[C@@H](CCC(=O)O)C(=O)N[C@H](C(=O)NCC(N)=O)CSCC(=O)N[C@@H](Cc2ccc(O)cc2)C(=O)N(C)[C@@H](C)C(=O)N[C@@H](CC(=O)O)C(=O)N2CCC[C@H]2C(=O)N[C@@H](CO)C(=O)N[C@@H](CCC(N)=O)C(=O)N2C[C@H](O)C[C@H]2C(=O)N[C@@H](Cc2c[nH]c3ccccc23)C(=O)N[C@@H](CO)C(=O)N[C@@H](Cc2c[nH]c3ccccc23)C(=O)N1C [Example 5214] ({CH2CO}-Y[NMeA]DPSQ[Hyp]WSW[NMeNle][NMeNle]ECG-NH2; thioether N-14) | 1 to 9.9
CCCC[C@H]1C(=O)N(C)[C@@H](CCCC)C(=O)N[C@@H](CCC(=O)O)C(=O)N[C@H](C(=O)NCC(N)=O)CSCC(=O)N[C@@H](Cc2ccc(O)cc2)C(=O)N(C)[C@@H](C)C(=O)N[C@@H](CC(=O)O)C(=O)N2CCC[C@H]2C(=O)N[C@@H](Cc2c[nH]cn2)C(=O)N[C@@H](CCC(N)=O)C(=O)N2C[C@H](O)C[C@H]2C(=O)N[C@@H](Cc2c[nH]c3ccccc23)C(=O)N[C@@H](CO)C(=O)N[C@@H](Cc2csc3ccccc23)C(=O)N1C [Example 5215] ({CH2CO}-Y[NMeA]DPHQ[Hyp]WS[Bta][NMeNle][NMeNle]ECG-NH2; thioether N-14) | 1 to 9.9
